Experimental data reported in patent US20230391766A1, “1-(2-(4-CYCLOPROPYL-1H-1,2,3-TRIAZOL-1-YL)ACETYL)-4-HYDROXY-N-(BENZYL)PYRROLIDIN E-2-CARBOXAMIDE DERIVATIVES AS VHL INHIBITORS FOR THE TREATMENT OF ANEMIA AND CANCER” (Genentech, Inc., priority 2020, published 2023).

Assays:
VHL [1] = target: T1, VHL (Homo sapiens, UniProt P40337); assay: VHL HEK-293 BRET Assay (VHL NanoBRET Target Engagement Assay); format: cell-based; conditions: for IC50: HEK 293 RT VHL-NanoLuc stable cells, 1 uM tracer, 2 hours, geometric mean where more than one measurement, read-out: VHL binding in cells (HEK293 nanoBRET); for Ratio cell permeability shift: ratio not defined
T1 construct: expressed in transfected cells
T1 sequence (P40337 whole entry): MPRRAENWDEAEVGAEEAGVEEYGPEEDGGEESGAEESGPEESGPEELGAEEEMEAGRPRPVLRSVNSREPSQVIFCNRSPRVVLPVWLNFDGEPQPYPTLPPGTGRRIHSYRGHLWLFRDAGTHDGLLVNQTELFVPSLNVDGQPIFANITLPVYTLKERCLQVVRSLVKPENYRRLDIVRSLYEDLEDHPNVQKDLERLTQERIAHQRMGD
Protocol: (§1) The VHL NanoBRET™ Target Engagement Assay analyzes the apparent affinity of test compounds for VHL in cells by competitive displacement of a VHL NanoBRET™ tracer reversibly bound to a NanoLuc® VHL fusion protein stably expressed in the cells.
(§2) 50 nL of control compound (10 mM; parental unlabeled VHL antagonist; see structure below) and 50 nL of DMSO (negative control) were dispensed into the appropriate control wells. DMSO was backfilled to a final volume of 50 nL as required. […] Max Signal control wells consisted of DMSO only treated wells. Minimum Signal control wells contained of 10 uM parental unlabeled VHL antagonist (control compound—see structure below). […] Background Signal control wells were prepared without tracer for background correction steps.
(§3) The raw BRET ratio values were calculated by dividing the acceptor emission value (610 nm) by the donor emission value (460 nm) for each sample. To correct for background, the BRET ratio in the absence of tracer (average of no-tracer control samples) was subtracted from the BRET ratio of each sample. Raw BRET units were converted to milliBRET units (mBU) by multiplying each raw BRET value by 1,000. The normalized NanoBRET™ signal was calculated relative to the Max Signal control wells (DMSO treated control wells) and the Minimum Signal control wells. Percentage inhibition was calculated relative to the Minimum Signal control and Maximum Signal control wells. IC50 values were derived by four parameter curve fitting using the Robust method.

VHL [2] = target: T1, VHL; assay: VHL nanoBRET (+ Digitonin); format: cell-based
Protocol: as §1, §2, §3

IC50 (VHL [1]) [nM] | Ratio cell permeability shift (VHL [1]) | EC50 (VHL [2]) [nM] | Structure (SMILES)
62500 | 1.43 | 43700 | COC(=O)c1nnn([C@@H](C(=O)N2C[C@H](O)C[C@H]2C(=O)N[C@H](Cc2ccc(-c3ccccc3)cc2)C(N)=O)C(C)C)c1C (single isomer, unassigned) [Isomer A from Example S33]
300 | 0.77 | 390 | CC(C)[C@@H](C(=O)N1C[C@H](O)C[C@H]1C(=O)N[C@H](Cc1ccc(-c2ccccc2)cc1)C(N)=O)n1nnc2ccccc21 (single isomer, unassigned) [Isomer A from Example S36]
1620 | 1.64 | 990 | COC(=O)c1nnn([C@H](C(=O)N2C[C@H](O)C[C@H]2C(=O)N[C@H](Cc2ccc(-c3ccccc3)cc2)C(N)=O)C(C)C)c1C (single isomer, unassigned) [Isomer B from Example S33]
68500 | 1.01 | 68000 | CC(C)[C@H](C(=O)N1C[C@H](O)C[C@H]1C(=O)N[C@H](Cc1ccc(-c2ccccc2)cc1)C(N)=O)n1nnc2ccccc21 (single isomer, unassigned) [Isomer B from Example S36]
20 | 1.15 | 20 | C#CC1(c2cn([C@H](C(=O)N3C[C@H](O)C[C@H]3C(=O)NCc3ccc(-c4scnc4C)cc3)C(C)(C)C)nn2)CC1 [Compound 30, (2S,4R)-1-((S)-2-(4-(1-ethynylcyclopropyl)-1H-1,2,3-triazol-1-yl)-3,3-dimethylbutanoyl)-4-hydroxy-N-(4-(4-methylthiazol-5-yl)benzyl)pyrrolidine-2-carboxamide]
310 | 19.75 | 20 | Cc1ncsc1-c1ccc(CNC(=O)[C@@H]2C[C@@H](O)CN2C(=O)[C@@H](n2cc(C3(c4cn([C@H](C(=O)N5C[C@H](O)C[C@H]5C(=O)NCc5ccc(-c6scnc6C)cc5)C(C)(C)C)nn4)CC3)nn2)C(C)(C)C)cc1 [Compound 31, (2S,2'S,4R,4′R)-1,1′-((2S,2'S)-2,2′-(cyclopropane-1,1-diylbis(JH-1,2,3-triazole-4,1-diyl))bis(3,3-dimethylbutanoyl))bis(4-hydroxy-N-(4-(4-methylthiazol-5-yl)benzyl)pyrrolidine-2-carboxamide)]
– | 0.67 | – | Cc1ncsc1-c1ccc(CNC(=O)[C@@H]2C[C@@H](O)CN2C(=O)[C@H](C2CCCCC2)n2cc(C3CC3)nn2)cc1 [Example S25, (2S,4R)-1-((S)-2-cyclohexyl-2-(4-cyclopropyl-1H-1,2,3-triazol-1-yl)acetyl)-4-hydroxy-N-(4-(4-methylthiazol-5-yl)benzyl)pyrrolidine-2-carboxamide]
– | – | > 100000 | Cc1c(C(=O)O)nnn1[C@@H](C(=O)N1C[C@H](O)C[C@H]1C(=O)N[C@H](Cc1ccc(-c2ccccc2)cc1)C(N)=O)C(C)C [Example S34, 1-((R)-1-((2S,4R)-2-(((R)-3-([1,1′-biphenyl]-4-yl)-1-amino-1-oxopropan-2-yl)carbamoyl)-4-hydroxypyrrolidin-1-yl)-3-methyl-1-oxobutan-2-yl)-5-methyl-1H-1,2,3-triazole-4-carboxylic acid]
– | – | 13000 | Cc1c(C(=O)O)nnn1[C@H](C(=O)N1C[C@H](O)C[C@H]1C(=O)N[C@H](Cc1ccc(-c2ccccc2)cc1)C(N)=O)C(C)C [Example S35, 1-((S)-1-((2S,4R)-2-(((R)-3-([1,1′-biphenyl]-4-yl)-1-amino-1-oxopropan-2-yl)carbamoyl)-4-hydroxypyrrolidin-1-yl)-3-methyl-1-oxobutan-2-yl)-5-methyl-1H-1,2,3-triazole-4-carboxylic acid]
